Consider 15 compounds from patent publication US8173638B2 (Boehringer Ingelheim International GmbH, priority 2006, dated 2012).

For this experiment, the target named is T1, human CB2R (Homo sapiens, UniProt P34972).
T1 construct: host or cells: CHO cells
T1 sequence (P34972 whole entry): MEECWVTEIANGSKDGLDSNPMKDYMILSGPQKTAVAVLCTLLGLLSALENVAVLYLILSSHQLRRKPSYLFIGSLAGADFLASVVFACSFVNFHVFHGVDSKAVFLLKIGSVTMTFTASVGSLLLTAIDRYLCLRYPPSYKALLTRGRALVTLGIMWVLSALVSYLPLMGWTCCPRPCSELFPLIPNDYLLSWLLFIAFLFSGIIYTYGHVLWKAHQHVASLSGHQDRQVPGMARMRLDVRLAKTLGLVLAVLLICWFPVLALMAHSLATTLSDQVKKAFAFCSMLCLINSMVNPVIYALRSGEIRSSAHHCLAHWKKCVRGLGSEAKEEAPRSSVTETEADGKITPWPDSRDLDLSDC
The experiment in a line: CB2R mediated modulation of cAMP synthesis. In kind it is cell-based. To be noted: found through the use of the described assays (CB2 agonists); qualitative statement. In short, it runs like this:
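Forskolin (10 uM)-driven cAMP in human CB2R-expressing CHO cells, read with DiscoverX-XS kit after 30 min compound exposure at 37 °C, 1 mM IBMX, 0.25% BSA. 100% defined as forskolin cAMP relative to 1 uM CP55940 inhibition. Agonist EC50 via four-parameter logistic model.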
Take `COC1CCC(C(=O)N2CCCN(C(=O)Nc3cc(C(C)(C)C)on3)CC2)CC1` (stereo not drawn) [4-(4-Methoxy-cyclohexanecarbonyl)-[1,4]diazepane-1-carboxylic acid (5-tert-butyl-isoxazol-3-yl)-amide]: the agonistic activity entry is on record as “agonistic activity”.
The same measure for `COC1CCN(C(=O)N2CCCN(C(=O)Nc3cc(C(C)(C)C)no3)CC2)CC1` [4-(4-Methoxy-piperidine-1-carbonyl)-[1,4]diazepane-1-carboxylic acid (3-tert-butyl-isoxazol-5-yl)-amide]: “agonistic activity”; for `Cc1ccc(C(=O)N2CCCN(C(=O)Nc3ccc(C(C)(C)C)cc3)CC2)cc1` [4-(4-Methyl-benzoyl)-[1,4]diazepane-1-carboxylic acid (4-tert-butyl-phenyl)-amide]: “agonistic activity”; for `Cc1ccc(C(=O)N2CCCN(C(=O)Nc3ccc4ccccc4c3)CC2)cc1` [4-(4-Methyl-benzoyl)-[1,4]diazepane-1-carboxylic acid naphthalen-2-ylamide]: “agonistic activity”.
In the case of `CCCCc1ccc(NC(=O)N2CCCN(C(=O)CCC(C)C)CC2)cc1` [4-(4-Methyl-pentanoyl)-[1,4]diazepane-1-carboxylic acid (4-butyl-phenyl)-amide], the agonistic activity result is listed as “agonistic activity”.
Regarding `CC(C)CCC(=O)N1CCCN(C(=O)Nc2ccc(C(C)C)cc2)CC1` [4-(4-Methyl-pentanoyl)-[1,4]diazepane-1-carboxylic acid (4-isopropyl-phenyl)-amide], the agonistic activity result is “agonistic activity”.
The same measure for `CC(C)CCC(=O)N1CCCN(C(=O)Nc2ccc3ccccc3c2)CC1` [4-(4-Methyl-pentanoyl)-[1,4]diazepane-1-carboxylic acid naphthalen-2-ylamide]: “agonistic activity”; for `CC(C)(C)c1cc(NC(=O)N2CCCN(C(=O)C3CCC(=O)CC3)CC2)no1` [4-(4-Oxo-cyclohexanecarbonyl)-[1,4]diazepane-1-carboxylic acid (5-tert-butyl-isoxazol-3-yl)-amide]: “agonistic activity”.
On to `CC(C)(C)c1cc(NC(=O)N2CCCN(C(=O)c3ccc(C(F)(F)F)cc3)CC2)no1` [4-(4-Trifluoromethyl-benzoyl)-[1,4]diazepane-1-carboxylic acid (5-tert-butyl-isoxazol-3-yl)-amide], for which the agonistic activity result was “agonistic activity”.
The result for `O=C(Nc1ccc2ccccc2c1)N1CCCN(C(=O)c2ccc(C(F)(F)F)cc2)CC1` [4-(4-Trifluoromethyl-benzoyl)-[1,4]diazepane-1-carboxylic acid naphthalen-2-ylamide] reads “agonistic activity”; that for `C[C@@H]1CN(C(=O)N2CCCN(C(=O)Nc3cc(C(C)(C)C)on3)CC2)C[C@H](C)O1` [4-((2R,6S)-2,6-Dimethyl-morpholine-4-carbonyl)-[1,4]diazepane-1-carboxylic acid (5-tert-butyl-isoxazol-3-yl)-amide], “agonistic activity”; that for `O=C(Nc1cc(-c2ccccc2)no1)N1CCCN(C(=O)N2CCOCC2)CC1` [4-(Morpholine-4-carbonyl)-[1,4]diazepane-1-carboxylic acid (3-phenyl-isoxazol-5-yl)-amide], “agonistic activity”.
`CCC(C)c1cc(NC(=O)N2CCCN(C(=O)N3CCOCC3)CC2)on1` (stereo not drawn) [4-(Morpholine-4-carbonyl)-[1,4]diazepane-1-carboxylic acid (3-sec-butyl-isoxazol-5-yl)-amide]: the agonistic activity entry is “agonistic activity”.
On to `CC(C)(C)c1cc(NC(=O)N2CCCN(C(=O)N3CCOCC3)CC2)on1` [4-(Morpholine-4-carbonyl)-[1,4]diazepane-1-carboxylic acid (3-tert-butyl-isoxazol-5-yl)-amide], for which the agonistic activity result was “agonistic activity”.
On to `O=C(Nc1nc(-c2ccccc2)cs1)N1CCCN(C(=O)N2CCOCC2)CC1` [4-(Morpholine-4-carbonyl)-[1,4]diazepane-1-carboxylic acid (4-phenyl-thiazol-2-yl)-amide], for which the agonistic activity entry is listed as “agonistic activity”.
